According to paper PMC9848300, “Discovery of novel enasidenib analogues targeting inhibition of mutant isocitrate dehydrogenase 2 as antileukaemic agents” (Journal of Enzyme Inhibition and Medicinal Chemistry, 2023):

Tests used:
Type in all cases: cell-based
[1] = tested on: LOX IMVI; experiment: NCI 60 antitumor screening (single dose / five doses); settings: Homo sapiens; for inhibition at 10 µM: LOX IMVI (melanoma), single dose 10 μM, read-out: Growth inhibition percentage (GI %)
[2] = tested on: IGROV1; experiment: as above; settings: Homo sapiens, IGROV-1; for inhibition at 10 µM: IGROV1 (ovarian cancer), single dose 10 μM, read-out: Growth inhibition percentage (GI %)
[3] = tested on: SK-MEL-2; experiment: as above; settings: Homo sapiens; for inhibition at 10 µM: SK-MEL-2 (melanoma), single dose 10 μM, read-out: Growth inhibition percentage (GI %)
[4] = tested on: SN 12C; experiment: as above; settings: Homo sapiens, SN12C; for inhibition at 10 µM: SN 12C (renal cancer), single dose 10 μM, read-out: Growth inhibition percentage (GI %)
[5] = tested on: K-562; experiment: as above; settings: Homo sapiens, K562; for inhibition at 10 µM: K-562 (leukaemia), single dose 10 μM, read-out: Growth inhibition percentage (GI %)
[6] = tested on: TK-10; experiment: NCI 60 antitumor screening (single dose); settings: Homo sapiens; TK-10 (renal cancer), single dose 10 μM; read-out: Growth inhibition percentage (GI %)
Procedure: (§1) Initially, the anticancer effects of target compounds have been assessed at a single (10 μM) dose. The obtained data have been reported as mean-graph of the percent growth (G%) of the treated cancer cells. Percentage growth inhibition (GI%) is calculated (100 − G%) and pronounced in Table 1. […] Target compounds in series (III) with manipulated linkers disclosed lower potency. Superiorly, eight s-triazine derivatives from the three series (6a, 6c, 6d, 7a, 7g, 7i, 7l, and 8b) have shown potent broad-spectrum anticancer activity against most the examined cell lines, whereas most of the remaining triazine derivatives, 20 derivatives, have exerted selective anti-proliferative actions towards certain cancer cell lines (Supplementary).
(§2) The antitumor screening was performed for 60 human cancer cell lines under the protocol of NCI (www.dtp.nci.nih.gov), the Drug Evaluation Branch, Bethesda, MD. All submitted compounds were nominated based on the degree of structural diversity and computer modelling techniques for evaluation of their anticancer activity. The screening process for antineoplastic activity passes through two successive levels, starting with the assessment of target compounds at a single dose of 10 μM against 60 cancer cell lines on nine types of human tumours. These experiments were done on a triplicate following. The output from the single‐dose screening was covered as a mean graph, and then, analysed by the COMPARE program. Finally, the compounds which disclosed subpanel cancer cell growth (G %) equal to or less than 10% in at least eight cancer cell lines get to pass the assessment against the 60 cell lines at five doses (0.01–100 μM). By using GraphPad Prism version 9.0 (Graphpad Software Inc., La Jolla, CA), GI50, TGI, as well as LC50 dose‐response parameters were computed and presented for each compound (Supplementary information)[55–57].

[7] = tested on: HOP-62; experiment: NCI 60 antitumor screening (single dose); settings: Homo sapiens; HOP-62 (non-small cell lung cancer), single dose 10 μM; read-out: Growth inhibition percentage (GI %)
Procedure: as §1, §2

[8] = tested on: SK-OV-3; experiment: NCI 60 antitumor screening (single dose); settings: Homo sapiens; SK-OV-3 (ovarian cancer), single dose 10 μM; read-out: Growth inhibition percentage (GI %)
Procedure: as §1, §2

[9] = tested on: PC-3; experiment: NCI 60 antitumor screening (single dose); settings: Homo sapiens; PC-3 (prostate cancer), single dose 10 μM; read-out: Growth inhibition percentage (GI %)
Procedure: as §1, §2

[10] = tested on: HCC-2998; experiment: NCI 60 antitumor screening (single dose); settings: Homo sapiens; HCC-2998 (colon cancer), single dose 10 μM; read-out: Growth inhibition percentage (GI %)
Procedure: as §1, §2

[11] = tested on: NCI-H460; experiment: NCI 60 antitumor screening (single dose); settings: Homo sapiens; NCI-H460 (non-small cell lung cancer), single dose 10 μM; read-out: Growth inhibition percentage (GI %)
Procedure: as §1, §2

[12] = tested on: U251; experiment: NCI 60 antitumor screening (single dose); settings: Homo sapiens, U-251; U251 (CNS cancer), single dose 10 μM; read-out: Growth inhibition percentage (GI %)
Procedure: as §1, §2

[13] = tested on: OVCAR-4; experiment: NCI 60 antitumor screening (single dose); settings: Homo sapiens; OVCAR-4 (ovarian cancer), single dose 10 μM; read-out: Growth inhibition percentage (GI %)
Procedure: as §1, §2

[14] = tested on: HS 578T; experiment: NCI 60 antitumor screening (single dose); settings: Homo sapiens; HS 578T (breast cancer), single dose 10 μM; read-out: Growth inhibition percentage (GI %)
Procedure: as §1, §2

[15] = tested on: KM 12; experiment: NCI 60 antitumor screening (single dose); settings: Homo sapiens, KM12; KM 12 (colon cancer), single dose 10 μM; read-out: Growth inhibition percentage (GI %)
Procedure: as §1, §2

[16] = tested on: NCI-H226; experiment: NCI 60 antitumor screening (single dose); settings: Homo sapiens; NCI-H226 (non-small cell lung cancer), single dose 10 μM; read-out: Growth inhibition percentage (GI %)
Procedure: as §1, §2

[17] = tested on: SNB-19; experiment: NCI 60 antitumor screening (single dose); settings: Homo sapiens; SNB-19 (CNS cancer), single dose 10 μM; read-out: Growth inhibition percentage (GI %)
Procedure: as §1, §2

[18] = tested on: OVCAR-8; experiment: NCI 60 antitumor screening (single dose); settings: Homo sapiens; OVCAR-8 (ovarian cancer), single dose 10 μM; read-out: Growth inhibition percentage (GI %)
Procedure: as §1, §2

[19] = tested on: OVCAR-5; experiment: NCI 60 antitumor screening (single dose); settings: Homo sapiens; OVCAR-5 (ovarian cancer), single dose 10 μM; read-out: Growth inhibition percentage (GI %)
Procedure: as §1, §2

[20] = tested on: OVCAR-3; experiment: NCI 60 antitumor screening (single dose); settings: Homo sapiens; OVCAR-3 (ovarian cancer), single dose 10 μM; read-out: Growth inhibition percentage (GI %)
Procedure: as §1, §2

[21] = tested on: ACHN; experiment: NCI 60 antitumor screening (single dose / five doses); settings: Homo sapiens; for inhibition at 10 µM: ACHN (renal cancer), single dose 10 μM, read-out: Growth inhibition percentage (GI %)
[22] = tested on: T-47D; experiment: as above; settings: Homo sapiens, T47D; for inhibition at 10 µM: T-47D (breast cancer), single dose 10 μM, read-out: Growth inhibition percentage (GI %)
[23] = tested on: HCT-116; experiment: as above; settings: Homo sapiens; for inhibition at 10 µM: HCT-116 (colon cancer), single dose 10 μM, read-out: Growth inhibition percentage (GI %)
[24] = tested on: COLO 205; experiment: as above; settings: Homo sapiens; for inhibition at 10 µM: COLO 205 (colon cancer), single dose 10 μM, read-out: Growth inhibition percentage (GI %)
[25] = tested on: UACC-257; experiment: as above; settings: Homo sapiens; for inhibition at 10 µM: UACC-257 (melanoma), single dose 10 μM, read-out: Growth inhibition percentage (GI %)
[26] = tested on: SR; experiment: as above; settings: Homo sapiens; for inhibition at 10 µM: SR (leukaemia), single dose 10 μM, read-out: Growth inhibition percentage (GI %)
[27] = tested on: SF-295; experiment: as above; settings: Homo sapiens; for inhibition at 10 µM: SF-295 (CNS cancer), single dose 10 μM, read-out: Growth inhibition percentage (GI %)
[28] = tested on: EKVX; experiment: as above; settings: Homo sapiens; for inhibition at 10 µM: EKVX (non-small cell lung cancer), single dose 10 μM, read-out: Growth inhibition percentage (GI %)

## Clc1cccc(/C=N/Nc2nc(N/N=C/c3cccc(Cl)c3)nc(N3CCOCC3)n2)c1 [compound 6d, 2,4-Bis[(E)-2-[(3-chlorophenyl)methylidene]hydrazin-1-yl]-6-(morpholin-4-yl)-1,3,5-triazine]
[1]
  inhibition at 10 µM: 67.4%
[1]; LOX IMVI, five doses (0.01–100 μM), read-out: GI50
  GI50: 2990 nM
[2]
  inhibition at 10 µM: 49.4%
[2]; IGROV1, five doses (0.01–100 μM), read-out: GI50
  GI50: 4610 nM
[3]
  inhibition at 10 µM: 102%
[3]; SK-MEL-2, five doses (0.01–100 μM)
  GI50: 2180 nM
[4]
  inhibition at 10 µM: 40.1%
[4]; SN 12C, five doses (0.01–100 μM), read-out: GI50
  GI50: 4990 nM
[5]
  inhibition at 10 µM: 88.2%
[5]; K-562, five doses (0.01–100 μM), read-out: GI50
  GI50: 690 nM
[6]
  inhibition at 10 µM: -0.21%
[7]
  inhibition at 10 µM: -9.83%
[8]
  inhibition at 10 µM: -29.6%
[9]
  inhibition at 10 µM: 58.5%
[10]
  inhibition at 10 µM: 41%
[11]
  inhibition at 10 µM: 21.8%
[12]
  inhibition at 10 µM: 39.6%
[13]
  inhibition at 10 µM: 33.6%
[14]
  inhibition at 10 µM: 32.5%
[15]
  inhibition at 10 µM: 69.8%
[16]
  inhibition at 10 µM: 39.6%
[17]
  inhibition at 10 µM: 12.1%
[18]
  inhibition at 10 µM: 50.5%
[19]
  inhibition at 10 µM: 4.53%
[20]
  inhibition at 10 µM: 43.7%
[21]
  inhibition at 10 µM: 74.2%
[21]; ACHN, five doses (0.01–100 μM), read-out: GI50
  GI50: 2110 nM
[22]
  inhibition at 10 µM: 31.5%
[22]; T-47D, five doses (0.01–100 μM), read-out: GI50
  GI50: 3540 nM
[23]
  inhibition at 10 µM: 77.2%
[23]; HCT-116, five doses (0.01–100 μM), read-out: GI50
  GI50: 1270 nM
[24]
  inhibition at 10 µM: 63.1%
[24]; COLO 205, five doses (0.01–100 μM), read-out: GI50
  GI50: 1230 nM
[25]
  inhibition at 10 µM: 60.9%
[25]; UACC-257, five doses (0.01–100 μM), read-out: GI50
  GI50: 2470 nM
[26]
  inhibition at 10 µM: 92.3%
[26]; SR, five doses (0.01–100 μM), read-out: GI50
  GI50: 320 nM
[27]
  inhibition at 10 µM: 42.4%
[27]; SF-295, five doses (0.01–100 μM), read-out: GI50
  GI50: 4130 nM
[28]
  inhibition at 10 µM: 27.8%
[28]; EKVX, five doses (0.01–100 μM), read-out: GI50
  GI50: 4230 nM

## Fc1cccc(/C=N/Nc2nc(N/N=C/c3cccc(F)c3)nc(N3CCOCC3)n2)c1 [compound 6e, 2,4-Bis[(E)-2-[(3-Fluorophenyl)methylidene]hydrazin-1-yl]-6-(morpholin-4-yl)-1,3,5-triazine]
[1]
  inhibition at 10 µM: 0.67%
[2]
  inhibition at 10 µM: 18.4%
[3]
  inhibition at 10 µM: 2.51%
[4]
  inhibition at 10 µM: 8.98%
[5]
  inhibition at 10 µM: 35.3%
[6]
  inhibition at 10 µM: -28.1%
[7]
  inhibition at 10 µM: -5.63%
[8]
  inhibition at 10 µM: -17.7%
[9]
  inhibition at 10 µM: 24.5%
[10]
  inhibition at 10 µM: -2.3%
[11]
  inhibition at 10 µM: 5.44%
[12]
  inhibition at 10 µM: 23.8%
[13]
  inhibition at 10 µM: 0.54%
[14]
  inhibition at 10 µM: -0.4%
[15]
  inhibition at 10 µM: 0.3%
[16]
  inhibition at 10 µM: 5.56%
[17]
  inhibition at 10 µM: 1.85%
[18]
  inhibition at 10 µM: 8.56%
[19]
  inhibition at 10 µM: -3.81%
[20]
  inhibition at 10 µM: 19.3%
[21]
  inhibition at 10 µM: 20.9%
[22]
  inhibition at 10 µM: 10.3%
[23]
  inhibition at 10 µM: 24.6%
[24]
  inhibition at 10 µM: 37.4%
[25]
  inhibition at 10 µM: 6.59%
[26]
  inhibition at 10 µM: 60.2%
[27]
  inhibition at 10 µM: -8.45%
[28]
  inhibition at 10 µM: 10.9%
